The results in this text go back to US7414040B2, “Thrombopoietin mimetics” (SmithKline Beecham Corporation, priority 2002, dated 2008).

In the test the target is T1, human Tpo-R (Homo sapiens, UniProt P40238).
T1 construct: expressed in transfected cells; host or cells: murine BaF3 cell line
T1 sequence (P40238 26-635): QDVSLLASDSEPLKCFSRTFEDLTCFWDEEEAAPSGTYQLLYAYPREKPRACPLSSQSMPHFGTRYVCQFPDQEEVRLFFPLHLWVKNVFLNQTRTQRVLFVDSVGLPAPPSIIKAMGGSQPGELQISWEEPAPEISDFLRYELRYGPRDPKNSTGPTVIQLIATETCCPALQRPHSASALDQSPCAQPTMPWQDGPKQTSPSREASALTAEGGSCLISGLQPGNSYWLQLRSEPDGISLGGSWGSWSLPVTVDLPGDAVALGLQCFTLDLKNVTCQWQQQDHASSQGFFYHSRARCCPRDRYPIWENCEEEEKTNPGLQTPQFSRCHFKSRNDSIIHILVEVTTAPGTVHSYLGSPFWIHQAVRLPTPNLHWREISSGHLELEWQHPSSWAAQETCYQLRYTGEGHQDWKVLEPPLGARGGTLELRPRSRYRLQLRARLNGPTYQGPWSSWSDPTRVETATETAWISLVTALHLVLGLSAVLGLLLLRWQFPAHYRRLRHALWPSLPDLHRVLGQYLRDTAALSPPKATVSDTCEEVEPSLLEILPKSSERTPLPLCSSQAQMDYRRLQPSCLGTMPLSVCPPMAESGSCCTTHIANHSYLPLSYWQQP
The test is described as follows: BaF3/hTPO-R in vitro proliferation assay. It is filed as cell-based. As to conditions: murine BaF3 cell line transfected with human Tpo-R. How it is done:
Compounds of the present invention were tested for potency as mimetics of TPO in an in vitro proliferation assay using the murine BaF3 cell line transfected with human Tpo-R. Survival and growth is dependent on the presence of TPO.

As a reminder, the EC50 is the concentration that produces a half-maximal response. Low values mean an effect from little substance, high ones a need for much substance. Turning to `CC1=NN(C2CCCCC2)C(=O)C1=NNc1cccc(-c2cccc(C(=O)O)c2)c1O` [Example 1, 3′-[N′-(1-cyclohexyl-3-methyl-5-oxo-1,5-dihydro-pyrazol-4-ylidene)-hydrazino]-2′-hydroxy-biphenyl-3-carboxylic acid], it took 800 nM to reach a half-maximal effect (EC50). Further, the “activity, % TPO” value (relative to TPO) is 160 % TPO.
